Columns and labels:
Format in all cases: cell-based
[1] = test system: Pseudomonas aeruginosa; experiment: MIC against Gram-negative bacteria: Pseudomonas aeruginosa; conditions: 5×10^5 CFU/mL
Summary of the method: (§1)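 The recombinant human-originated EGF domain proteins were serially diluted two-fold against bacteria at 5×10^5 CFU/mL in LB medium. After shaken incubation at 37° C, the lowest concentration with no bacterial growth was recorded as the MIC.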

[2] = test system: Aeromonas hydrophila; experiment: MIC against Gram-negative bacteria: Aeromonas hydrophila; conditions: 5×10^5 CFU/mL
Summary of the method: as §1

[3] = test system: E. coli DH5α; experiment: Antibacterial activity: MIC and growth curve against E. coli DH5α in 96-well plate; conditions: minimal inhibitory concentration against E. coli DH5α; 96-well plate, 5×10^5 CFU/mL, 37° C., judged after 8 h
Summary of the method: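 MIC taken as lowest protein level with no bacterial growth, tracked by A600 every 30 min during 37 °C, 175 rpm culture. Two-fold protein series 50-12.5 μg/mL final, triplicate wells, against 5×10^5 CFU/mL of LB-washed mid-log cells.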

[4] = test system: Serratia marcescens; experiment: MIC against Gram-negative bacteria: Serratia marcescens; conditions: 5×10^5 CFU/mL
Summary of the method: as §1

[5] = test system: Enterobacter cloacae; experiment: MIC against Gram-negative bacteria: Enterobacter cloacae; conditions: 5×10^5 CFU/mL
Summary of the method: as §1

[6] = test system: Proteus mirabilis; experiment: MIC against Gram-negative bacteria: Proteus mirabilis; conditions: 5×10^5 CFU/mL
Summary of the method: as §1

[7] = test system: Citrobacter diversus; experiment: MIC against Gram-negative bacteria: Citrobacter diversus; conditions: 5×10^5 CFU/mL
Summary of the method: as §1

[8] = test system: Klebsiella pneumonia; experiment: MIC against Gram-negative bacteria: Klebsiella pneumonia; conditions: 5×10^5 CFU/mL
Summary of the method: as §1

[9] = test system: E. coli BL21; experiment: MIC against Gram-negative bacteria: E. coli BL21; conditions: 5×10^5 CFU/mL
Summary of the method: as §1

[10] = test system: Proteus vulgaris; experiment: MIC against Gram-negative bacteria: Proteus vulgaris; conditions: 5×10^5 CFU/mL
Summary of the method: as §1

[11] = test system: Moraxella catarrhalis; experiment: MIC against Gram-negative bacteria: Moraxella catarrhalis; conditions: 5×10^5 CFU/mL
Summary of the method: as §1

[12] = 10 h cultivation at 37° C., two-fold serial dilution
[13] = Pseudomonas aeruginosa, 96-well plate, 37° C., 10 h
[14] = Aeromonas hydrophila, 96-well plate, 37° C., 10 h
[15] = Serratia marcescens, 96-well plate, 37° C., 10 h
[16] = Enterobacter cloacae, 96-well plate, 37° C., 10 h
[17] = Proteus mirabilis, 96-well plate, 37° C., 10 h
[18] = Citrobacter diversus, 96-well plate, 37° C., 10 h
[19] = Klebsiella pneumonia, 96-well plate, 37° C., 10 h
[20] = E. coli BL21, 96-well plate, 37° C., 10 h
[21] = Proteus vulgaris, 96-well plate, 37° C., 10 h
[22] = Moraxella catarrhalis, 96-well plate, 37° C., 10 h
[23] = E. coli BL21, 10 h cultivation at 37° C.

PRT1127 (KDGPCVINGSPCQHGGTCVDDEGRASHASCLCPPGFSGNFCE; listed as Homo sapiens)
MIC P. aeruginosa [1, 12]: 12.5 µg/mL | MIC A. hydrophila [2, 12]: 50 µg/mL | MIC [3]: 12.5 µg/mL | MIC S. marcescens [4, 12]: 25 µg/mL | MIC E. cloacae [5, 12]: 12.5 µg/mL | MIC P. mirabilis [6, 12]: 25 µg/mL | MIC C. diversus [7, 12]: 25 µg/mL | MIC K. pneumonia [8, 12]: 50 µg/mL | MIC E. coli BL21 [9, 12]: 50 µg/mL | MIC P. vulgaris [10, 12]: 50 µg/mL | MIC M. catarrhalis [11, 12]: 12.5 µg/mL

PRT1317 (APNPCWPSPCSLLAQCSVSPKGQAQCHCPENYHGDGMVCL; listed as Homo sapiens)
MIC against P. aeruginosa [1, 13]: 50 µg/mL | MIC against A. hydrophila [2, 14]: 25 µg/mL | MIC [3]: 50 µg/mL | MIC against S. marcescens [4, 15]: 12.5 µg/mL | MIC against E. cloacae [5, 16]: 12.5 µg/mL | MIC against P. mirabilis [6, 17]: 12.5 µg/mL | MIC against C. diversus [7, 18]: 50 µg/mL | MIC against K. pneumonia [8, 19]: 25 µg/mL | MIC against E. coli BL21 [9, 20]: 12.5 µg/mL | MIC against P. vulgaris [10, 21]: 50 µg/mL | MIC against M. catarrhalis [11, 22]: 25 µg/mL

PRT138 (PCHNNATCEDSVDNYTCHCWPGYTGAQCE; listed as Homo sapiens)
MIC (μg/mL) P. aeruginosa [1, 13]: 12.5 µg/mL | MIC (μg/mL) A. hydrophila [2, 14]: 25 µg/mL | MIC [3]: 12.5 µg/mL | MIC (μg/mL) S. marcescens [4, 15]: 25 µg/mL | MIC (μg/mL) E. cloacae [5, 16]: 50 µg/mL | MIC (μg/mL) P. mirabilis [6, 17]: 12.5 µg/mL | MIC (μg/mL) C. diversus [7, 18]: 12.5 µg/mL | MIC (μg/mL) K. pneumonia [8, 19]: 25 µg/mL | MIC (μg/mL) E. coli BL21 [9, 20]: 50 µg/mL | MIC (μg/mL) P. vulgaris [10, 21]: 12.5 µg/mL | MIC (μg/mL) M. catarrhalis [11, 22]: 100 µg/mL

PRT540 (CVCHGHADACDAKDPTDPFRLQCTCQHNTCGGTCDRCCPGFNQQPWKPATANSANECQS; listed as Homo sapiens)
MIC against P. aeruginosa ([1]; 96-well plate, 37° C., 10 h): 12.5 µg/mL | MIC against A. hydrophila ([2]; 96-well plate, 37° C., 10 h): 12.5 µg/mL | MIC [3]: 12.5 µg/mL | MIC against S. marcescens ([4]; 96-well plate, 37° C., 10 h): 50 µg/mL | MIC against E. cloacae ([5]; 96-well plate, 37° C., 10 h): 50 µg/mL | MIC against P. mirabilis ([6]; 96-well plate, 37° C., 10 h): 25 µg/mL | MIC against C. diversus ([7]; 96-well plate, 37° C., 10 h): 25 µg/mL | MIC against K. pneumonia ([8]; 96-well plate, 37° C., 10 h): 12.5 µg/mL | MIC against E. coli BL21 ([9]; 96-well plate, 37° C., 10 h): 50 µg/mL | MIC against P. vulgaris ([10]; 96-well plate, 37° C., 10 h): 12.5 µg/mL | MIC against M. catarrhalis ([11]; 96-well plate, 37° C., 10 h): 50 µg/mL

PRT730 (NGNSCSDFNGGCTHECVQEPFGAKCLCPLGFLLANDSKTCE; listed as Homo sapiens)
MIC P. aeruginosa ([1]; 96-well plate, 37° C., 10 h): 25 µg/mL | MIC A. hydrophila ([2]; 96-well plate, 37° C., 10 h): 25 µg/mL | MIC [3]: 25 µg/mL | MIC S. marcescens ([4]; 96-well plate, 37° C., 10 h): 25 µg/mL | MIC E. cloacae ([5]; 96-well plate, 37° C., 10 h): 50 µg/mL | MIC P. mirabilis ([6]; 96-well plate, 37° C., 10 h): 50 µg/mL | MIC C. diversus ([7]; 96-well plate, 37° C., 10 h): 12.5 µg/mL | MIC K. pneumonia ([8]; 96-well plate, 37° C., 10 h): 25 µg/mL | MIC E. coli BL21 ([9]; 96-well plate, 37° C., 10 h): 12.5 µg/mL | MIC P. vulgaris ([10]; 96-well plate, 37° C., 10 h): 12.5 µg/mL | MIC M. catarrhalis ([11]; 96-well plate, 37° C., 10 h): 25 µg/mL

PRT693 (SSGMCQRNPQVCGPGRCISRPSGYTCACDSGFRLSPQGTRCI; listed as Homo sapiens)
MIC P. aeruginosa ([1]; 96-well plate, 37° C., 10 h): 50 µg/mL | MIC A. hydrophila ([2]; 96-well plate, 37° C., 10 h): 25 µg/mL | MIC [3]: 25 µg/mL | MIC S. marcescens ([4]; 96-well plate, 37° C., 10 h): 50 µg/mL | MIC E. cloacae ([5]; 96-well plate, 37° C., 10 h): 12.5 µg/mL | MIC P. mirabilis ([6]; 96-well plate, 37° C., 10 h): 25 µg/mL | MIC C. diversus ([7]; 96-well plate, 37° C., 10 h): 50 µg/mL | MIC K. pneumonia ([8]; 96-well plate, 37° C., 10 h): 25 µg/mL | MIC E. coli BL21 ([9]; 96-well plate, 37° C., 10 h): 12.5 µg/mL | MIC P. vulgaris ([10]; 96-well plate, 37° C., 10 h): 50 µg/mL | MIC M. catarrhalis ([11]; 96-well plate, 37° C., 10 h): 12.5 µg/mL

PRT1385 (GVRSCPGDCNQRGRCEDGRCVCWPGYTGTDC; listed as Homo sapiens)
MIC against P. aeruginosa ([1]; Pseudomonas aeruginosa, 10 h cultivation at 37° C.): 12.5 µg/mL | MIC against A. hydrophila ([2]; Aeromonas hydrophila, 10 h cultivation at 37° C.): 50 µg/mL | MIC [3]: 12.5 µg/mL | MIC against S. marcescens ([4]; Serratia marcescens, 10 h cultivation at 37° C.): 50 µg/mL | MIC against E. cloacae ([5]; Enterobacter cloacae, 10 h cultivation at 37° C.): 12.5 µg/mL | MIC against P. mirabilis ([6]; Proteus mirabilis, 10 h cultivation at 37° C.): 12.5 µg/mL | MIC against C. diversus ([7]; Citrobacter diversus, 10 h cultivation at 37° C.): 12.5 µg/mL | MIC against K. pneumonia ([8]; Klebsiella pneumonia, 10 h cultivation at 37° C.): 50 µg/mL | MIC against E. coli BL21 [9, 23]: 50 µg/mL | MIC against P. vulgaris ([10]; Proteus vulgaris, 10 h cultivation at 37° C.): 25 µg/mL | MIC against M. catarrhalis ([11]; Moraxella catarrhalis, 10 h cultivation at 37° C.): 50 µg/mL

PRT106 (RSVCDLFPSYCHNGGQCYLVENIGAFCRCNTQDYIWHKGMRCE; listed as Homo sapiens)
MIC (μg/mL) P. aeruginosa [1, 13]: 12.5 µg/mL | MIC (μg/mL) A. hydrophila [2, 14]: 12.5 µg/mL | MIC [3]: 12.5 µg/mL | MIC (μg/mL) S. marcescens [4, 15]: 12.5 µg/mL | MIC (μg/mL) E. cloacae [5, 16]: 25 µg/mL | MIC (μg/mL) P. mirabilis [6, 17]: 12.5 µg/mL | MIC (μg/mL) C. diversus [7, 18]: 25 µg/mL | MIC (μg/mL) K. pneumonia [8, 19]: 50 µg/mL | MIC (μg/mL) E. coli BL21 [9, 20]: 50 µg/mL | MIC (μg/mL) P. vulgaris [10, 21]: 12.5 µg/mL | MIC (μg/mL) M. catarrhalis [11, 22]: 12.5 µg/mL

PRT1294 (DFDDCQDNKCKNGAHCTDAVNGYTCICPEGYSGLFCE; listed as Homo sapiens)
MIC against P. aeruginosa [1, 13]: 50 µg/mL | MIC against A. hydrophila [2, 14]: 12.5 µg/mL | MIC [3]: 50 µg/mL | MIC against S. marcescens [4, 15]: 50 µg/mL | MIC against E. cloacae [5, 16]: 50 µg/mL | MIC against P. mirabilis [6, 17]: 50 µg/mL | MIC against C. diversus [7, 18]: 50 µg/mL | MIC against K. pneumonia [8, 19]: 12.5 µg/mL | MIC against E. coli BL21 [9, 20]: 12.5 µg/mL | MIC against P. vulgaris [10, 21]: 12.5 µg/mL | MIC against M. catarrhalis [11, 22]: 12.5 µg/mL

PRT182 (QQPICLSGCHEQNGYCSKPAECLCRPGWQGRLCN; listed as Homo sapiens)
MIC (μg/mL) P. aeruginosa ([1]; P. aeruginosa, 10 h cultivation at 37° C.): 25 µg/mL | MIC (μg/mL) A. hydrophila ([2]; A. hydrophila, 10 h cultivation at 37° C.): 12.5 µg/mL | MIC [3]: 12.5 µg/mL | MIC (μg/mL) S. marcescens ([4]; S. marcescens, 10 h cultivation at 37° C.): 25 µg/mL | MIC (μg/mL) E. cloacae ([5]; E. cloacae, 10 h cultivation at 37° C.): 25 µg/mL | MIC (μg/mL) P. mirabilis ([6]; P. mirabilis, 10 h cultivation at 37° C.): 25 µg/mL | MIC (μg/mL) C. diversus ([7]; C. diversus, 10 h cultivation at 37° C.): 25 µg/mL | MIC (μg/mL) K. pneumonia ([8]; K. pneumonia, 10 h cultivation at 37° C.): 12.5 µg/mL | MIC (μg/mL) E. coli BL21 [9, 23]: 12.5 µg/mL | MIC (μg/mL) P. vulgaris ([10]; P. vulgaris, 10 h cultivation at 37° C.): 12.5 µg/mL | MIC (μg/mL) M. catarrhalis ([11]; M. catarrhalis, 10 h cultivation at 37° C.): 100 µg/mL
